Reference: patent US7429658B2, “Synthesis of protected pyrrolobenzodiazepines” (Spirogen Limited, priority 2003, dated 2008)

Key:
[1] = Photolytic deprotection of N-10 protected PBD (irradiation at 365 nM), monitored by reversed phase HPLC; format: physicochemical; conditions: 0.25 g in MeOH (10 mL) irradiated at 365 nM; HPLC at 1 h intervals against standard of parent PBD 30
Procedure: A solution of the N-10 protected PBD (0.25 g) in MeOH (10 mL was irradiated at 365 nM. The reaction was monitored by reversed phase HPLC (C18 column, 5 μM particle size, 250 mm×4.6 mm; mobile phase 70% H2O/30% CH3CN/0.1% TFA; detection at 245 nM) against a standard sample of the parent PBD 30. Aliquots of the reaction mixture (20 μL) were injected at 1 h intervals. The conversion to parent PBD was complete in 12 h.

[2] = molecular target: T1, Carboxypeptidase G2 (CPG2) (Pseudomonas sp., UniProt P06621); experiment: Carboxypeptidase G2 (CPG2) cleavage of prodrug to parent PBD imine, monitored by reversed phase HPLC; format: biochemical; conditions: 100 μM prodrug, CPG2 (1 unit), 100 mM Tris-HCl pH 7.3, 260 μM ZnCl2, 37° C.
T1 sequence (P06621 23-415): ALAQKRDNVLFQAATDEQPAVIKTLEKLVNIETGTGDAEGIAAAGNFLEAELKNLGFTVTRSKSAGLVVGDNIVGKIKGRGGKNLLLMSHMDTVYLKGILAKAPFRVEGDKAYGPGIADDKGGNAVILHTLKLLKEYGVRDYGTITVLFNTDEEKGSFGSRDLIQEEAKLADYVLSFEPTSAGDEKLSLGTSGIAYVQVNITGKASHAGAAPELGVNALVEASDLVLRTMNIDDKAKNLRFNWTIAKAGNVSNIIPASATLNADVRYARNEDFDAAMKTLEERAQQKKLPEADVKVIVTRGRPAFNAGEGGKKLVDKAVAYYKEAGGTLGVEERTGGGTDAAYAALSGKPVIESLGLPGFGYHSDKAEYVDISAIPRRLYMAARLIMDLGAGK
Procedure: (§1) An aliquot of a 10 mM stock solution of the carbamate monomer prodrug was diluted to 100 μM in Carboxypeptidase G2 (CPG2) assay buffer (100 mM Tris-HCl, pH 7.3; 260 μM ZnCl2). CPG2 (1 unit) was added and the reaction was incubated at 37° C. The reaction was monitored by reversed phase HPLC (C18 column, 5 μM particle size, 250 mm×4.6 mm; mobile phase 70% H2O/30% CH3CN/0.1% TFA; detection at 245 nM) with 20 μL aliquots being injected at 0, 10, 20, 30, 40, 50 and 60 min. The conversion of the prodrug to the parent imine 30 was complete in 60 minutes.
as §1, with “carbamate dimer” for “carbamate monomer”, “0, 15,” for “0, 10, 20,”, “30, 45, 60” for “30, 40, 50”, “and 75” for “and 60”, “imine 61” for “imine 30”, “in 75 min.” for “in 60 minutes.”

In the case of COc1cc(COC(=O)N2c3cc(OC)c(OC)cc3C(=O)N3CCC[C@H]3[C@@H]2O)c([N+](=O)[O-])cc1OC [Compound 28, (11S,11aS)-7,8-Dimethoxy-11-hydroxy-5-oxo-1,2,3,10,11,11a-hexahydro-5H-pyrrolo[2,1-c][1,4]benzodiazepine-10-carboxylic acid 4,5-dimethoxy-2-nitro-benzyl ester], the “conversion to parent PBD complete in” value [1] is reported as at most 12 h.
With COc1cc2c(cc1OC)N(C(=O)OCc1ccc(OC(=O)N[C@@H](CCC(=O)O)C(=O)O)cc1)[C@@H](O)[C@@H]1CCCN1C2=O [Compound 46, 2-[4-((11S,11aS)-7,8-Dimethoxy-11-hydroxy-5-oxo-1,2,3,10,11,11a-hexahydro-5H-pyrrolo[2,1-c][1,4]benzodiazepine-10-carbonyloxymethyl)-phenoxycarbonylamino]-pentanedioic acid] the “conversion of the prodrug to the parent imine 30 complete in” value ([2]; HPLC aliquots every 10 min to 60 min) was at most 60 min.
In the case of COc1cc2c(cc1OCCCCCOc1cc3c(cc1OC)C(=O)N1CCC[C@H]1[C@H](O)N3C(=O)OCc1ccc(OC(=O)N[C@@H](CCC(=O)O)C(=O)O)cc1)N(C(=O)OCc1ccc(OC(=O)N[C@@H](CCC(=O)O)C(=O)O)cc1)[C@@H](O)[C@@H]1CCCN1C2=O [Compound 68, 1,1′-[[Pentane-1,5-diyl]dioxy]bis[(11S,11aS)-10-[N-(4-(L-glutamylcarbonyloxy)benzyloxycarbonyl)]-11-hydroxy-7-methoxy-1,2,3,10,11,11a-hexahydro-5H-pyrrolo[2,1-c][1,4]benzodiazepine-5-one]], the “conversion of the prodrug to the parent imine 61 complete in” value ([2]; HPLC aliquots every 15 min to 75 min) is reported as at most 75 min.
